Test systems include DLD-1; DMS-114; HOP-18; M19-MEL; KM-20L2; SNB-78; DMS-273; XF498; RXF 631.
Common to all, as to experiment: inhibition of tumour cell growth, NCI panel, 48 h

Each structure is given as a SMILES string.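 Dose response: 5 concentrations. Exposure: 48 h. Format: 96-well plates. Endpoint: linear interpolation; highest concentration if not reached. The concentration for 50% growth inhibition is given as GI50.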 Activity calls are given as the source filed them. No stated cut-off is given here; in the data, active = GI50 up to about 1.1 µM and inactive = higher.

For the molecule `CC1=NOC(=O)/C1=C/c1cccc2ccccc12`, the GI50 with DLD-1, in the experiment with DMS-114, in the experiment with HOP-18, with M19-MEL, in the experiment on KM-20L2 and in the experiment on SNB-78 was > 100 µM (inactive) each time. In addition, the GI50 in the experiment on DMS-273 was > 100 µM (inactive).
Consider `Cc1ccccc1NC(=O)C(=O)CC(=O)C1CCOC1=O` (centres undefined), for which the GI50 with DLD-1 is > 100 µM (inactive); in the experiment with DMS-114, > 100 µM (inactive); in the experiment on HOP-18, 7.29 µM (inactive); with M19-MEL, > 100 µM (inactive); in the experiment with KM-20L2, > 100 µM (inactive); in the experiment on SNB-78, > 100 µM (inactive). The GI50 in the experiment on XF498 and in the experiment on DMS-273 was > 100 µM (inactive) throughout.
Consider `Cn1cnc([N+](=O)[O-])c1Sc1n[nH]c(-c2ccc(Cl)cc2)n1`, for which the GI50 with RXF 631 was 20.7 µM (inactive); in the experiment with DLD-1 it was 18.4 µM (inactive); in the experiment on DMS-114, 18.2 µM (inactive); in the experiment on HOP-18, 1.47 µM (inactive); in the experiment with M19-MEL, 19 µM (inactive); with SNB-78 it was 19.8 µM (inactive). The results for the GI50 in the experiment on XF498 and with DMS-273 were 10.1 µM (inactive) and 16.9 µM (inactive), respectively.
Turning to `CCOC(=O)C(=O)CC(=O)C(Br)C(Br)c1ccc(Cl)cc1` (centres undefined), the GI50 was > 100 µM (inactive) with RXF 631; 18.3 µM (inactive) in the experiment with DLD-1; 43 µM (inactive) with DMS-114; 23.2 µM (inactive) with M19-MEL; > 100 µM (inactive) with KM-20L2; 44.2 µM (inactive) in the experiment with SNB-78. Also, in the experiment on DMS-273, the GI50 is 70.5 µM (inactive).
`O=C(CCN1CCCCC1)C(=Cc1ccccc1)C(=O)CCN1CCCCC1`: the GI50 with DLD-1 was 20 µM (inactive); in the experiment on DMS-114, 2.77 µM (inactive); in the experiment on HOP-18, > 10 µM (inactive); in the experiment on M19-MEL, 67.3 µM (inactive); in the experiment with KM-20L2, > 100 µM (inactive); in the experiment on SNB-78 it was > 62.5 µM (inactive). Moreover, the GI50 with XF498 and in the experiment on DMS-273 was > 100 µM (inactive) in each case.
In the case of `C[s+]1c2ccccc2c2ccccc21`, the GI50 in the experiment on M19-MEL, in the experiment on KM-20L2, in the experiment with SNB-78, with XF498 and in the experiment with DMS-273 was > 100 µM (inactive) throughout.
For `O=C1OCC/C1=N/O`, the GI50 with DLD-1, in the experiment with DMS-114, in the experiment with HOP-18, in the experiment with M19-MEL, with KM-20L2 and with SNB-78 was > 100 µM (inactive) in each case. In addition, the GI50 with DMS-273 is > 100 µM (inactive).
`COc1ccc(/C=C(\NC(=O)c2ccccc2)c2nc3ccccc3[nH]2)cc1OC`: the GI50 in the experiment on RXF 631, with DLD-1, in the experiment with DMS-114, in the experiment with HOP-18, with M19-MEL and in the experiment with KM-20L2 was > 100 µM (inactive) in each case. The GI50 in the experiment on SNB-78 and with XF498 was > 100 µM (inactive) throughout.
`O=C1c2ccccc2C(=O)N1CC#CCO`: the GI50 in the experiment with RXF 631, with M19-MEL, with SNB-78, in the experiment on XF498 and in the experiment on DMS-273 was > 100 µM (inactive) each time.
For `CCOC(=O)/C(=C\c1ccc(N(CCC#N)CCC#N)cc1C)NC(=O)/C=C/c1ccccc1`, the GI50 with DLD-1, in the experiment with DMS-114, with M19-MEL, in the experiment with KM-20L2, with SNB-78 and in the experiment on XF498 was > 100 µM (inactive) each time. Further, the GI50 in the experiment with DMS-273 is > 100 µM (inactive).
In the case of `O=C1OC2C(O)COC2(O)C1(O)Cc1c[nH]c2ccccc12` (centres undefined), the GI50 in the experiment with DLD-1, in the experiment with DMS-114, with HOP-18, in the experiment with M19-MEL, with KM-20L2 and with SNB-78 was > 100 µM (inactive) each time. The GI50 in the experiment with XF498 and with DMS-273 was > 100 µM (inactive) throughout.
On to `CC1(C)O[C@@H](CCl)C[C@H](C#N)O1`, for which the GI50 in the experiment with DLD-1, with DMS-114, with HOP-18, in the experiment with M19-MEL, in the experiment on KM-20L2 and with SNB-78 was > 100 µM (inactive) throughout. Moreover, the GI50 in the experiment with XF498 and with DMS-273 was > 100 µM (inactive) in each case.
For the molecule `CC(C)(C)/N=C\N(C=C(c1ccccc1)c1ccccc1)C1CCCCC1`, the GI50 in the experiment on DLD-1 was 23.1 µM (inactive); in the experiment on DMS-114, 19.2 µM (inactive); in the experiment with HOP-18, 52.2 µM (inactive); in the experiment on M19-MEL, 44.2 µM (inactive); with KM-20L2 it was 16.9 µM (inactive); in the experiment on SNB-78 it was 69 µM (inactive). Moreover, the GI50 in the experiment on XF498 was 16.6 µM (inactive); in the experiment on DMS-273, 46.6 µM (inactive).
With `Cn1ncc2c(Nc3ccc(Cl)cc3)c3ccccc3nc21`, the GI50 with RXF 631 is 13.1 µM (inactive); in the experiment on DLD-1, 11.2 µM (inactive); in the experiment on DMS-114, 13.4 µM (inactive); with HOP-18, 22.3 µM (inactive); in the experiment with M19-MEL it was 19.3 µM (inactive); with SNB-78 it was 24.4 µM (inactive). In addition, the GI50 in the experiment with XF498 was > 10 µM (inactive); in the experiment on DMS-273, 15.2 µM (inactive).
On to `COc1ccc(Nc2nc3ccc(C(F)(F)F)cc3nc2-c2ccccc2)cc1OC`, for which the GI50 in the experiment with RXF 631 was 39.6 µM (inactive); in the experiment on DLD-1, 30.5 µM (inactive); in the experiment with DMS-114, 38.7 µM (inactive); in the experiment with XF498, 49.1 µM (inactive); in the experiment with DMS-273, 32.4 µM (inactive).
Consider `COc1cc(OC)c(Oc2cccc(OC)c2OC)c(OC)c1`, for which the GI50 is > 100 µM (inactive) in the experiment with DLD-1; > 100 µM (inactive) in the experiment with DMS-114; 29.5 µM (inactive) with HOP-18; > 100 µM (inactive) in the experiment with M19-MEL; > 100 µM (inactive) with KM-20L2; > 100 µM (inactive) in the experiment on SNB-78. Moreover, the GI50 in the experiment with XF498 and in the experiment on DMS-273 was > 100 µM (inactive) throughout.
Consider `Cc1cccc(C(C)C)c1NC(=O)C(=O)C(C(=O)c1ccccc1F)C1OC(=O)c2ccccc21` (centres undefined), for which the GI50 is 18.6 µM (inactive) in the experiment on RXF 631; 14.8 µM (inactive) in the experiment with DLD-1; 10.2 µM (inactive) in the experiment on DMS-114; 3.59 µM (inactive) in the experiment on HOP-18; 11.5 µM (inactive) in the experiment on M19-MEL; 29.2 µM (inactive) in the experiment with KM-20L2. In addition, the GI50 with XF498 was 10.4 µM (inactive); with DMS-273, 19 µM (inactive).
Turning to `COC(=O)/C(C#N)=C1\NC(=O)c2ccccc21`, the GI50 in the experiment with DLD-1, with DMS-114, in the experiment on HOP-18, with M19-MEL, in the experiment on KM-20L2 and with SNB-78 was > 100 µM (inactive) each time. Further, in the experiment on DMS-273, the GI50 is > 100 µM (inactive).
As for `COC(=O)c1nc(NN)cc(O)c1CCCCCc1c(O)nc(NN)nc1C(=O)OC`, the GI50 is > 100 µM (inactive) in the experiment with DLD-1; > 95.1 µM (inactive) in the experiment on DMS-114; > 100 µM (inactive) in the experiment with HOP-18; > 100 µM (inactive) with M19-MEL; > 100 µM (inactive) with KM-20L2; > 100 µM (inactive) in the experiment on SNB-78. The GI50 in the experiment on XF498 and in the experiment on DMS-273 was > 100 µM (inactive) throughout.
On to `CCOC(=O)CC(NC(=O)c1nc[nH]c1/N=N/N(C)C)C(=O)OCC` (centres undefined), for which the GI50 in the experiment with DLD-1, with DMS-114, in the experiment with M19-MEL and in the experiment on DMS-273 was > 100 µM (inactive) each time.
Regarding `CC(C)=CC(=O)CC(=O)C(=O)Nc1ccc(Cl)c(Cl)c1`, the GI50 with DLD-1, in the experiment with DMS-114, with M19-MEL, with KM-20L2, with SNB-78 and with DMS-273 was > 100 µM (inactive) in each case.
With `C/C1=C/C2OC(=O)C3(C)C2C(CC2(C)OC1=CC2=O)OC3(O)C(C)C` (centres undefined), the GI50 in the experiment with RXF 631 is 33.1 µM (inactive); with DLD-1, 32.7 µM (inactive); with DMS-114 it was 14.3 µM (inactive); with HOP-18, 37.8 µM (inactive); in the experiment on M19-MEL, 34.4 µM (inactive); in the experiment with KM-20L2 it was 21.8 µM (inactive). In addition, the GI50 is 35.2 µM (inactive) in the experiment with SNB-78, 23.7 µM (inactive) with XF498 and 33 µM (inactive) in the experiment with DMS-273.
Take `CC[C@H](C)N(CCN)C(=O)c1cc2ccccc2c(-c2ccccc2Cl)n1`: the GI50 in the experiment with DMS-114 is 13.9 µM (inactive); in the experiment with KM-20L2, 13.2 µM (inactive); with SNB-78, 14.3 µM (inactive); in the experiment on DMS-273, 13.6 µM (inactive).
`O=C(NCCCC/N=c1/cccccc1NCCCCNC(=O)OCc1ccccc1)OCc1ccccc1`: the GI50 in the experiment with RXF 631 is 13.3 µM (inactive); with DLD-1, 12.6 µM (inactive); in the experiment on DMS-114, 8.11 µM (inactive); in the experiment with M19-MEL, 20.2 µM (inactive); with KM-20L2, 11 µM (inactive); with SNB-78, 24.6 µM (inactive). Also, the GI50 with XF498 was 4.29 µM (inactive); in the experiment with DMS-273, 17.5 µM (inactive).
Regarding `Cn1cnc([N+](=O)[O-])c1Sc1nc2ccccc2[nH]1`, the GI50 in the experiment with DLD-1 was 5.6 µM (inactive); with DMS-114, 8.26 µM (inactive); in the experiment with HOP-18, 67.6 µM (inactive); in the experiment with M19-MEL, 14.9 µM (inactive); in the experiment with KM-20L2, 16.4 µM (inactive); in the experiment with SNB-78, 13.2 µM (inactive). The GI50 with XF498 is 3.65 µM (inactive); with DMS-273, 1.91 µM (inactive).
Turning to `C/C1=C\[C@@H](O)C(=O)/C=C/C=C\c2csc(n2)[C@@H](C)NC(=O)C[C@@]2(CC1)[S+]([O-])SC(=O)[C@]2(C)O` (some centres undefined) [LEINAMYCIN], the GI50 in the experiment on DLD-1 was 0.0209 µM (active); with DMS-114, 0.0353 µM (active); in the experiment on HOP-18, 0.0301 µM (active); in the experiment on M19-MEL, 0.0344 µM (active); in the experiment with KM-20L2, 0.0881 µM (active); in the experiment with SNB-78 it was 0.01 µM (active). The GI50 in the experiment with DMS-273 is 0.0135 µM (active).

Values taken from ChEMBL document CHEMBL1201862, “PubChem BioAssay data set” (2004).
